Source: patent publication US12065404B2, “C4-carboxylic acid-substituted tryptamine derivatives and methods of using” (priority 2022, dated 2024)
Values joined by “and” are separate entries in the source; they are usually repeats but may differ in a detail not shown here. Identical values can stand only once.

Legend:
[1] = Mouse pharmacokinetic (PK) study, parent compound and psilocin metabolite in plasma; type: in vivo, C57Bl/6 mice; settings: for bioavailability: male, C57Bl/6, mouse, plasma, po, no footnote on basis (Table 36B)
Text: Briefly, the procedure was as follows. […] 19, 2022.

[2] = biological target: T1, neuronal 5-HT2A receptor (5-HT2AR) (Mus musculus, UniProt P35363); assay: Drug-induced Head Twitch Response (HTR) in mice; type: in vivo, C57BL/6-Elite mice; settings: 1 mg/kg i.p., 15-to-30-minute window post-drug, relative to vehicle-treated control mice
T1 construct: HTR was measured in mice treated with a control and test compounds; tissue Charles River; host or cells: live C57BL/6-Elite mice (neuronal receptor)
T1 sequence (P35363 whole entry): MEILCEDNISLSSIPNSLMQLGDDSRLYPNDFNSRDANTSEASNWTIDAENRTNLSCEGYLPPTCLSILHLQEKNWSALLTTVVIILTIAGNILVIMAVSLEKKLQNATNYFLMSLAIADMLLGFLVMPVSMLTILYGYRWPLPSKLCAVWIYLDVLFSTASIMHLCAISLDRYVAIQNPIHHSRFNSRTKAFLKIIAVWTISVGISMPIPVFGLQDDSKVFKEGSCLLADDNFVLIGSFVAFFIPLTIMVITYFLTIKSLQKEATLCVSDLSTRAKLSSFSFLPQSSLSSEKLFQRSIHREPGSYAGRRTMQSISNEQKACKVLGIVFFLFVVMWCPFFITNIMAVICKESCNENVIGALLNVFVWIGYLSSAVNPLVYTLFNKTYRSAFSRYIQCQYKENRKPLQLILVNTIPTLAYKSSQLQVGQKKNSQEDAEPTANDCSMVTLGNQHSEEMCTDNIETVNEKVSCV

5-HT1A receptor = biological target: T2, 5-HT1A receptor (Homo sapiens, UniProt P08908); assay: cAMP-Glo assay of 5-HT1A receptor modulation, +5-HT1A (CHO-K1/5-HT1A/Ga15) vs -5-HT1A (CHO-K1/Ga15) cells; type: cell-based; parameters: dose or concentration left out as unconfirmed; settings: +5-HT1A vs -5-HT1A cell cultures stimulated with forskolin, increasing ligand concentrations
T2 construct: host or cells: CHO-K1 (co-expressing Ga15)
T2 sequence (P08908 1-422): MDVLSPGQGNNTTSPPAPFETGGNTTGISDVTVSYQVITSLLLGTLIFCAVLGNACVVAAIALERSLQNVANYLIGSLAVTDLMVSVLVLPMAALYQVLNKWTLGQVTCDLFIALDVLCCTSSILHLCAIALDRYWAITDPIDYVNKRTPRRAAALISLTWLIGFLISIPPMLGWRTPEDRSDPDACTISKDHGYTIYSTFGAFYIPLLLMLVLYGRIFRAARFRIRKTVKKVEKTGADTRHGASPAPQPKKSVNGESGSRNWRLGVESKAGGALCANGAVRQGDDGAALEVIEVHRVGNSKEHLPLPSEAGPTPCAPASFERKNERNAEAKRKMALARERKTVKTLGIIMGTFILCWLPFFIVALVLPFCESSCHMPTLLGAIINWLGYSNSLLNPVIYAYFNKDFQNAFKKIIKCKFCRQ

[3] = administered compound itself in plasma, 1 mg/kg i.v., individual animals, 1 mg/kg
[4] = administered compound itself in plasma, 1 mg/kg i.v., mean ± SD
[5] = administered compound itself in plasma, 1 mg/kg oral, individual animals, 1 mg/kg
[6] = administered compound itself in plasma, 1 mg/kg oral, mean ± SD
[7] = administered compound itself in plasma, 3 mg/kg oral, individual animals, 3 mg/kg
[8] = administered compound itself in plasma, 3 mg/kg oral, mean ± SD
[9] = plasma C(XX), 3 mg/kg p.o. C(XX), mean
[10] = plasma C(XX), 10 mg/kg oral C(XX), animals M58-M60, 10 mg/kg
[11] = plasma C(XX), 10 mg/kg oral C(XX), mean (n = 2)
[12] = plasma C(XX), 10 mg/kg oral C(XX), mean ± SD
[13] = plasma C(XX), 10 mg/kg oral C(XX), mean ± SD, 10 mg/kg

CN(C)CCc1c[nH]c2cccc(OC(=O)c3cccc4c3OCCO4)c12 [C(XX)]
MRT0-inf [1, 3]: 22 min and 25.7 min | Vss [1, 3]: 5.874 L/kg and 8.913 L/kg | AUC0-inf/Dose [1, 4]: 53.0 ± 8.26 kg·ng·h/mL/mg | AUC0-tlast/Dose [1, 4]: 52.8 ± 8.30 kg·ng·h/mL/mg | MRT0-inf [1, 4]: 24.7 ± 2.27 min | Cmax [1, 5]: 0.509 ng/mL and 0.648 ng/mL | Cmax/Dose [1, 5]: 0.702 kg·ng/mL/mg and 0.509 kg·ng/mL/mg and 0.648 kg·ng/mL/mg | tmax [1, 5]: 15 min | Cmax [1, 6]: 0.620 ± 0.0996 ng/mL | Cmax/Dose [1, 6]: 0.620 ± 0.0996 kg·ng/mL/mg | AUC0-inf [1, 7]: 1.72 ng·h/mL and 1.53 ng·h/mL | AUC0-inf/Dose [1, 7]: 0.433 kg·ng·h/mL/mg and 0.572 kg·ng·h/mL/mg and 0.510 kg·ng·h/mL/mg | AUC0-tlast [1, 7]: 1.48 ng·h/mL and 1.42 ng·h/mL | AUC0-tlast/Dose [1, 7]: 0.406 kg·ng·h/mL/mg and 0.494 kg·ng·h/mL/mg and 0.474 kg·ng·h/mL/mg | Apparent t1/2 [1, 7]: 40.1 min and 28.9 min | Cmax [1, 7]: 1.72 ng/mL and 1.93 ng/mL | Cmax/Dose [1, 7]: 0.497 kg·ng/mL/mg and 0.573 kg·ng/mL/mg and 0.643 kg·ng/mL/mg | MRT0-inf [1, 7]: 64.8 min and 49.4 min | AUC0-inf [1, 8]: 1.51 ± 0.210 ng·h/mL | AUC0-inf/Dose [1, 8]: 0.505 ± 0.0700 kg·ng·h/mL/mg | AUC0-tlast [1, 8]: 1.37 ± 0.137 ng·h/mL | AUC0-tlast/Dose [1, 8]: 0.458 ± 0.0457 kg·ng·h/mL/mg | Cmax [1, 8]: 1.71 ± 0.220 ng/mL | Cmax/Dose [1, 8]: 0.571 ± 0.0734 kg·ng/mL/mg | bioavailability ([1]; 3 mg/kg, 3 mg/kg oral, individual animals): 0.816% | bioavailability ([1]; 3 mg/kg, 3 mg/kg oral, mean ± SD): 0.953 ± 0.132% | AUC0-tlast/Dose ([1]; plasma C(XX), 1 mg/kg i.v. C(XX), mean): 52.8 kg·ng·h/mL/mg | Cmax/Dose ([1]; plasma C(XX), 1 mg/kg p.o. C(XX), mean): 0.620 kg·ng/mL/mg | AUC0-tlast/Dose [1, 9]: 0.458 kg·ng·h/mL/mg | Cmax/Dose [1, 9]: 0.571 kg·ng/mL/mg | F [1, 9]: 0.953% | tmax ([1]; plasma C(XX), 10 mg/kg oral C(XX), animals M58-M60): 15 min | AUC0-inf [1, 10]: 5.40 ng·h/mL and 10.7 ng·h/mL | AUC0-tlast [1, 10]: 5.65 ng·h/mL and 4.99 ng·h/mL and 9.16 ng·h/mL | AUC0-tlast/Dose [1, 10]: 0.565 kg·ng·h/mL/mg and 0.499 kg·ng·h/mL/mg and 0.916 kg·ng·h/mL/mg | F ([1]; plasma C(XX), 10 mg/kg oral C(XX), animals M58-M60, AUC0-tlast used, 10 mg/kg): 1.07% and 0.941% and 1.73% | AUC0-inf [1, 11]: 8.03 ng·h/mL | Apparent t1/2 [1, 11]: 186 min | MRT0-inf [1, 11]: 131 min | AUC0-tlast [1, 12]: 6.60 ± 2.24 ng·h/mL | Cmax [1, 12]: 7.47 ± 3.92 ng/mL | tmax [1, 12]: 15 ± 0 min | AUC0-tlast/Dose [1, 13]: 0.660 ± 0.224 kg·ng·h/mL/mg and 0.660 kg·ng·h/mL/mg | Cmax/Dose [1, 13]: 0.747 ± 0.392 kg·ng/mL/mg and 0.747 kg·ng/mL/mg | F ([1]; plasma C(XX), 10 mg/kg oral C(XX), mean ± SD, AUC0-tlast used, 10 mg/kg): 1.24 ± 0.423% and 1.24% | Incidences of Head Twitch Response (HTR) [2]: Elevated incidences of HTR | 5-HT1A receptor modulation (reduction of cAMP levels) (5-HT1A receptor): significant receptor modulation
